Test results from patent US8476043B2, “Inhibitors for the soluble epoxide hydrolase” (The Regents of the University of California, priority 2004, dated 2013).
In brackets after ≈: the same amount, converted by molar mass. Like-named read-outs stand apart in the source and are kept apart here. Values belong to the compound of their own block, whether it stands above or below them.

Assays:
rat sEH = target: T1, rat sEH (Rattus norvegicus, UniProt P80299); assay: Relative turnover of arachidonic acid epoxides by rat renal cortex cytosol; type: biochemical; conditions: Table 19, EET mixture hydrolyzed to 30% by rat renal cortex cytosol
T1 construct: EET fatty acid was hydrolyzed to 30% by rat renal cortex cytosol; from tissue; host or cells: rat renal cortex cytosol
T1 sequence (P80299 1-554): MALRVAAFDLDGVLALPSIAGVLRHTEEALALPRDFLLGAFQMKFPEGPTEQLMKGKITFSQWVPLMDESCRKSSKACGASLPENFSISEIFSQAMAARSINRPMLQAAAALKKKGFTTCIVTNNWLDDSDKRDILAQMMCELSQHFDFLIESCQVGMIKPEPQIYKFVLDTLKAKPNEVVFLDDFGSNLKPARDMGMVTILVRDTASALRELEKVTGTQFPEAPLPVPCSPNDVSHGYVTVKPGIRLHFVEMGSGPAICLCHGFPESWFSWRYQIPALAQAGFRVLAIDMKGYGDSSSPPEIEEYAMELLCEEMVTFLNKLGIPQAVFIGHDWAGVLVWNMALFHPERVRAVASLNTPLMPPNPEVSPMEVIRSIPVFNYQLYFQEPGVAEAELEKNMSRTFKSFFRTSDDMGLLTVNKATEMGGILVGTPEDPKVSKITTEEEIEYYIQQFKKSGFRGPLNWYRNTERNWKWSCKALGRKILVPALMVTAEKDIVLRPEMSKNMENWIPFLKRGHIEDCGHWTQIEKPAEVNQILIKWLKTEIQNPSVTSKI
Description: For epoxy fatty acid hydrolysis, the soluble epoxide hydrolase prefers substrates with epoxide moieties that are more distant from the carboxyl terminal. Specifically the substrate preference decreases in the order of 14,15-EET>11,12-EET>8,9-EET>>>5,6-EET for the epoxides of arachidonic acid. Independently, the relative substrate turnover of the epoxy arachidonates were calculated at 0.1:8.1:14.3 when a 1:1:2 mixture of 8,9-, 11,12-, and 14,15-EET fatty acid was hydrolyzed to 30% by rat renal cortex cytosol. By considering the primary pharmacophore of the urea to be a transition-state analog of epoxide hydrolysis, inhibitors have now been developed which incorporate long aliphatic acids. These compounds are better substrate and transition state mimics than those incorporating shorter aliphatic acids. Accordingly, optimal soluble epoxide hydrolase inhibitors can be obtained by producing compounds with aliphatic acid substituents (i.e. a tertiary pharmacophore) which are separated from the primary pharmacophore by an equivalent distance as the terminal acid is separated from the epoxide in optimal substrates. Within the enzyme active site, epoxy fatty acids have been predicted to exist in an extended or pseudo-linear confirmation. Therefore, both the epoxy fatty acids and the aliphatic acid containing urea structures were approximated as two dimensional linear representations and measurements were made on each species. The critical measurements taken were distances (in angstroms) from the carboxylate hydroxyl to the urea carbonyl and the urea nitrogens.

[1] = Pharmacokinetics after oral gavage in mice; type: in vivo, male Swiss Webster mice
Description: Animals. Male Swiss Webster mice, 6 weeks-old, were obtained from Charles River (CA, USA). After 1-2 week acclimation period, healthy animals were assigned to study groups based on body-weight stratified randomization procedure. The body weight of animals used in all the experiments ranged from 28 g to 38 g.
Administration and measurement. Pharmacokinetic studies in mice used a 5 mg/kg dose of sEH inhibitors dissolved in corn oil and 4% DMSO administered orally. […] Then the samples were centrifuged at 6000 rpm for 5 min, and the ethyl acetate layer was dried under nitrogen. The residue was reconstituted in 25 μL of methanol, and aliquots (5 μL) were injected onto the LC-MS/MS system.
Analysis. Pharmacokinetics analysis was performed using SigmaPlot software system (SPSS science, Chicago, Ill.).

[2] = Microsomal, NADPH dependent metabolic stability in rat hepatic microsomes; type: in vitro ADME; conditions: 1 μM, NADPH generating system, P450 dependent
Description: FIG. 6 is a graph illustrating the metabolic stabilities of 1-adamantyl-3-dodecyl urea (686) and 1-cyclohexyl-3-dodecyl urea (297) in rat hepatic microsomes. Microsomes were incubated with 1 μM 686 or 297 in the presence of an NADPH generating system. Data are expressed as mean±SD of triplicate experiments.
To evaluate the metabolic stability of these inhibitors, the microsomal and NADPH dependent metabolism of a number of potent sEH inhibitors was evaluated. […] The first step in the metabolic transformation of the n-alkyl to n-alkanoic acid derivatives is an NAPDH dependent process carried out by cytochrome P450 dependent omega hydroxylation in rodent and human hepatic tissue preparations (see FIG. 8). When in vivo metabolism was evaluated, evidence for the beta-oxidation of the alkanoic acid derivatives was also found (see FIG. 9).

Solubility in water = type: physicochemical; conditions: for solubility of adamantyl compound relative to the corresponding cyclohexyl derivative: 789 vs. 772, 790 vs. 791, 686 vs. 297
[3] = Oral treatment and pharmacokinetic study in a human subject or patient; type: in vivo; conditions: patient approaching end stage renal disease, brief oral treatment, low doses
Description: The discovery of the secondary and tertiary pharmacophores has also led to the employment of combinatorial chemistry approaches for establishing a wide spectrum of compounds having sEH inhibitory activity. The polar pharmacophores divide the molecule into domains each of which can be easily manipulated by common chemical approaches in a combinatorial manner, leading to the design and confirmation of novel orally available therapeutic agents for the treatment of diseases such as hypertension and vascular inflammation. The agents of the present invention treat such diseases while simultaneously increasing sodium excretion, reducing vascular and renal inflammation, and reducing male erectile dysfunction As shown below (see Example 51 and FIG. 13), alterations in solubility, bioavailability and pharmacological properties leads to compounds that can alter the regulatory lipids of experimental animals increasing the relative amounts of epoxy arachidonate derivatives when compared either to their diol products or to the proinflammatory and hypertensive hydroxyeicosatetraenoic acids (HETEs). Since epoxy arachidonates are anti-hypertensive and anti-inflammatory, altering the lipid ratios can lead to reduced blood pressure and reduced vascular and renal inflammation.
Serial bled blood samples (3-50 μL) were collected from finger tips into 50 μL heparinized capillary tube at various time points (0.5, 1, 2, 4, 6, 12 and 24 hr) after administration. These samples were used to measure parent compounds and their metabolites using LC-MS/MS as described above for experiments with mice. Blood samples were added 400 μL of distilled water and 25 μL of internal standard (500 ng/mL CTU), and vortexed. The blood samples were then extracted with 500 μL of ethyl acetate twice and the ethyl acetate layer was dried under nitrogen. The residue was reconstituted in 25 μL of methanol, and aliquots (10 μL) were injected onto the LC-MS/MS system as described above. Biological end points came from clinical chemistry samples run at The University of California Davis Clinical Laboratory and a series of 6 inflammatory markers including C reactive protein were run blind at the University of California Davis Department of Nephrology.

mouse sEH = target: T2, mouse sEH (Mus musculus, UniProt P34914); assay: sEH inhibition, spectrometric assay with racemic 4-nitrophenyl-trans-2,3-epoxy-3-phenylpropyl carbonate as substrate; type: biochemical; conditions: read-out: IC50 Mouse sEH
T2 construct: made in house
T2 sequence (P34914 1-554): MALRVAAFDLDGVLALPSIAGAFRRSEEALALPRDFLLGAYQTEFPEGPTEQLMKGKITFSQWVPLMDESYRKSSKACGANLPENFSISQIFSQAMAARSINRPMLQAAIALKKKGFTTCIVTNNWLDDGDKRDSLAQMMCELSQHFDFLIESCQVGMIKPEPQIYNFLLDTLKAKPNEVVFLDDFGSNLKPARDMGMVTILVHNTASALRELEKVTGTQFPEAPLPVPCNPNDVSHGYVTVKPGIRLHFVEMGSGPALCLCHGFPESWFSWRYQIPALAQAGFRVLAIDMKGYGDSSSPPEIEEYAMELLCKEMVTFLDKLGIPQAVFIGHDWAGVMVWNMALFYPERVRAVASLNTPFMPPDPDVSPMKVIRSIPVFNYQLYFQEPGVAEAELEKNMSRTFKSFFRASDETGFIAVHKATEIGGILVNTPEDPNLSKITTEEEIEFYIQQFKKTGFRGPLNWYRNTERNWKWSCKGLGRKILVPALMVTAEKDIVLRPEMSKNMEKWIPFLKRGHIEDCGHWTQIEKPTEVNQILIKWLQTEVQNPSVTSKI
Description: (§1) Recombinant mouse sEH and human sEH were produced in a baculovirus expression system and purified by affinity chromatography. […] Protein concentration was quantified by using the Pierce BCA assay using Fraction V bovine serum albumin as the calibrating standard.
(§2) IC50 values were determined in one of two method. One method uses racemic 4-nitrophenyl-trans-2,3-epoxy-3-phenylpropyl carbonate as substrate. […] Assays were performed in triplicate. […] The curve was generated from at least three separate runs, each in triplicate, to obtain the standard deviation (SD) given in Table 1 thru Table 4.

human sEH [4] = target: T3, human sEH (Homo sapiens, UniProt P34913); assay: as above; type: biochemical
T3 construct: made in house
T3 sequence (P34913 1-555): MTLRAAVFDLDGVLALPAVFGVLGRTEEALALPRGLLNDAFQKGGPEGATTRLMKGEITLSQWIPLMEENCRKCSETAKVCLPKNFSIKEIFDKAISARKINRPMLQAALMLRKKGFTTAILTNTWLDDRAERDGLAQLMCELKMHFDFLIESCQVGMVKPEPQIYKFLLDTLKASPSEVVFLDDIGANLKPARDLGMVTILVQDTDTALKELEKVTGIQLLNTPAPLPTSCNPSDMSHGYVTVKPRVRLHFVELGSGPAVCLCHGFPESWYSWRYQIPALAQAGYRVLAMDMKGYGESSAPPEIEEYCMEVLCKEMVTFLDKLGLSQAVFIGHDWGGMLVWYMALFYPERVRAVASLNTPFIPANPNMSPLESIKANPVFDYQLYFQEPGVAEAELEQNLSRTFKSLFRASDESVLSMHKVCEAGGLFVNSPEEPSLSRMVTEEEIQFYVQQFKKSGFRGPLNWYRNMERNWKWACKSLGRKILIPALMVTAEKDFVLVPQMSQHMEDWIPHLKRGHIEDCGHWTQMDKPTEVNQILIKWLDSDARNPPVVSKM
Description: as §1, §2

Solubility in oil = type: physicochemical; conditions: Table 5
human sEH [5] = target: T3, human sEH; assay: sEH inhibition, fluorescent assay with cyano(6-methoxy-naphthalen-2-yl)methyl trans-[(3-phenyloxiran-2-yl)methyl]carbonate as substrate; type: biochemical; conditions: for IC50: Table 5, fluorescent-based assay, 0.96 nM human sEH, pH 7.0, [S] = 5 μM, read-out: Human sEH IC50
Description: as §1
Enzyme activity was measured by monitoring the appearance of 6-methoxy-2-naphthaldehyde. Assays were performed in triplicate. […] IC50 values were determined by regression of at least five datum points, with a minimum of two datum points in the linear region of the curve on either side of the IC50 values. The curve was generated from at least three separate runs, each in triplicate.

SMILES: CCCCC/C=C\C/C=C\C/C=C\CC1OC1CCCC(=O)O (stereo not drawn) [5,6-EET]
Relative EET Turnover (rat sEH): 0.1

SMILES: CCCCC/C=C\C/C=C\CC1OC1C/C=C\CCCC(=O)O (stereo not drawn) [8,9-EET]
Relative EET Turnover (rat sEH): 1

SMILES: CCCCC/C=C\C[C@H]1O[C@H]1C/C=C\C/C=C\CCCC(=O)O [11,12-EET]
Relative EET Turnover (rat sEH): 8.1

SMILES: CCCCCC1OC1C/C=C\C/C=C\C/C=C\CCCC(=O)O (stereo not drawn) [14,15-EET]
Relative EET Turnover (rat sEH): 14.3

SMILES: CCCCCCCCCCCCNC(=O)NC12CC3CC(CC(C3)C1)C2 [Compound 686, 1-adamantyl-3-dodecylurea, reference compound]
time to reach the maximum concentration [1]: 2 h | metabolic stability in microsomal preparations [2]: rapidly metabolized | solubility of adamantyl compound relative to the corresponding cyclohexyl derivative (Solubility in water): approximately 2 ×

SMILES: O=C(O)CCCCCCCCCCCNC(=O)NC12CC3CC(CC(C3)C1)C2 [Compound 687, 1-(1-adamantyl)-3-(12-dodecanoic acid)urea]
time to reach the maximum concentration [1]: 0.5 h | metabolic stability in microsomal preparations [2]: stable

SMILES: CCCCCOC(=O)CCCNC(=O)NC12CC3CC(CC(C3)C1)C2 [Compound 789, 1-(1-Adamantyl)-3-(3-pentoxycarbonylpropyl)urea]
solubility of adamantyl compound relative to the corresponding cyclohexyl derivative (Solubility in water): approximately 2 ×

SMILES: CCCCOC(=O)CCCCCCCCCCCNC(=O)NC12CC3CC(CC(C3)C1)C2 [Compound 800, 1-(1-Adamantyl)-3-(11-butoxycarbonylundecyl)urea]
blood urea nitrogen [3]: dramatic reduction in blood urea nitrogen | serum levels of C reactive protein [3]: dramatically reduced serum levels of C reactive protein | serum profile of regulatory lipids [3]: altered the serum profile of regulatory lipids in a positive manner | systolic and diastolic blood pressure [3]: reduced systolic and diastolic blood pressure

The remaining lines, values ahead:

solubility of adamantyl compound relative to the corresponding cyclohexyl derivative (Solubility in water): approximately 2 ×
SMILES: CCCCCCCCCCNC(=O)NC12CC3CC(CC(C3)C1)C2 [Compound 790]

IC50 (mouse sEH; Table 8): 50 ± 10 nM | IC50 (human sEH [4]; Table 8, read-out: IC50 Human sEH): 100 ± 10 nM
SMILES: C#CCCOCCOCCCCCNC(=O)NC12CC3CC(CC(C3)C1)C2 [Compound 913]

Solubility in oil (Solubility in oil): 5,000 μg/mL | IC50 (human sEH [5]): 1.9 nM | fold improvement in inhibition of the human enzyme (human sEH [5]; compared with 687 (compound 4)): about 1.5 fold
SMILES: O=C(CCCCCCCCCCCNC(=O)NC12CC3CC(CC(C3)C1)C2)NS(=O)(=O)c1ccccc1 [Compound 914]

IC50 (mouse sEH; Table 18a): 170 ± 10 nM | IC50 (human sEH [4]; Table 18a, read-out: IC50 Human sEH): 120 ± 10 nM
SMILES: CCCCCCCCCCCCNC(=O)N[C@@H]1CCN(c2ccc(S(=O)(=O)N(C)C)c3nonc23)C1 [Compound 996]

fold better water solubility than compound 687 (Solubility in water): 2.5 fold | Solubility in water (Solubility in water; Table 5): 63 µg/mL (≈ 112 µM) | IC50 (human sEH [4]; Table 5, spectrometric-based assay, read-out: Human sEH IC50): 210 ± 10 nM | fold decrease in inhibition potency on human sEH (human sEH [5]; 792 vs. 687, 1001, 1002 and 798 vs. the sulfonylamides): 25 fold | IC50 (human sEH [5]): 55 nM
SMILES: CCCCCCCCC(NC(=O)CCCCCCCCCCCNC(=O)NC12CC3CC(CC(C3)C1)C2)C(=O)O (stereo not drawn) [Compound 1001, 2-[12-3-(Adamantan-1-yl-ureido)dodecanoylamino]decanoic acid]
